The source of these data is ChEMBL document CHEMBL4665653, “VU6005806/AZN-00016130, an advanced M positive allosteric modulator (PAM) profiled as a potential preclinical development candidate” (Bioorg Med Chem Lett, 2019).

The target in data set [1] is T1, Muscarinic acetylcholine receptor M4 (Homo sapiens, UniProt P08173).
T1 sequence (P08173 whole entry): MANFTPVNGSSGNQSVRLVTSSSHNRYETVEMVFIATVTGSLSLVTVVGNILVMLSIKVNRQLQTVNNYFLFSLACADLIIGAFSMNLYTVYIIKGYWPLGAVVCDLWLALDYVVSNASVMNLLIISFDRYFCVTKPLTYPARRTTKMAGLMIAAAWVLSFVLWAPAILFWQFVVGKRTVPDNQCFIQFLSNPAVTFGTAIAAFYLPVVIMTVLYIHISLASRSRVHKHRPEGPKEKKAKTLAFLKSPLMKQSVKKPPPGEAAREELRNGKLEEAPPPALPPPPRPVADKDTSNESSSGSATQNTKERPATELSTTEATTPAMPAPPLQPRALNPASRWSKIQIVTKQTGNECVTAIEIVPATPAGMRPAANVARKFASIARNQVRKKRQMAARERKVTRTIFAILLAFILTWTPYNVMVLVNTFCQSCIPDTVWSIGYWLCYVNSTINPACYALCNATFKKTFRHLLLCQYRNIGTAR
Description: Positive allosteric modulation of human M4 receptor/Gqi5 in presence of EC20 acetylcholine by calcium mobilization assay. Format: functional. A general note: A change in cytosolic calcium serves as a functional read-out for many receptors and channels.

Data set [2] deals with T2, Muscarinic acetylcholine receptor M4 (Homo sapiens) (UniProt P08173).
T2 sequence (whole entry): T1 sequence (P08173 whole entry)
The data set can be described thus: Positive allosteric modulation of human M4 receptor/Gqi5 in presence of EC20 acetylcholine by calcium mobilization assay relative to acetylcholine. Format: functional. Particulars: filed as positive allosteric modulator.

Data set [3] addresses T3, Muscarinic acetylcholine receptor M2 (Homo sapiens, UniProt P08172).
T3 sequence (P08172 whole entry): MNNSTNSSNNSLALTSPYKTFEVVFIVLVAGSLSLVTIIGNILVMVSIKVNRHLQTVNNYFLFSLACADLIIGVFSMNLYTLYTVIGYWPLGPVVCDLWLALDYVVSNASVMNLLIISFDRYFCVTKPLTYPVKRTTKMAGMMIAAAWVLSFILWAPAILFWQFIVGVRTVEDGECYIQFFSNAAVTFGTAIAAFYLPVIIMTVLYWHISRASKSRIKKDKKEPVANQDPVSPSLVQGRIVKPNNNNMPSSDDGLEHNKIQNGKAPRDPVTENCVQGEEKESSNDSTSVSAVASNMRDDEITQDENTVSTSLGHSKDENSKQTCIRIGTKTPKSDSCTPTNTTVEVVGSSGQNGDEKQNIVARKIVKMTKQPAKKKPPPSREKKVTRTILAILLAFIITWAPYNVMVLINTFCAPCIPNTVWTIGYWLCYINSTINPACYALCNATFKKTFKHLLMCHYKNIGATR
The data set can be described thus: Positive allosteric modulation of human M2 receptor/Gqi5 in presence of EC20 acetylcholine by calcium mobilization assay.

For data set [4], the target named is T3, Muscarinic acetylcholine receptor M2. The data set can be described thus: Positive allosteric modulation of human M2 receptor/Gqi5 in presence of EC20 acetylcholine by calcium mobilization assay relative to acetylcholine. The following applies: read-out: %max.
The target in data set [5] is T4, Muscarinic acetylcholine receptor M1 (Homo sapiens) (UniProt P11229).
T4 sequence (whole entry): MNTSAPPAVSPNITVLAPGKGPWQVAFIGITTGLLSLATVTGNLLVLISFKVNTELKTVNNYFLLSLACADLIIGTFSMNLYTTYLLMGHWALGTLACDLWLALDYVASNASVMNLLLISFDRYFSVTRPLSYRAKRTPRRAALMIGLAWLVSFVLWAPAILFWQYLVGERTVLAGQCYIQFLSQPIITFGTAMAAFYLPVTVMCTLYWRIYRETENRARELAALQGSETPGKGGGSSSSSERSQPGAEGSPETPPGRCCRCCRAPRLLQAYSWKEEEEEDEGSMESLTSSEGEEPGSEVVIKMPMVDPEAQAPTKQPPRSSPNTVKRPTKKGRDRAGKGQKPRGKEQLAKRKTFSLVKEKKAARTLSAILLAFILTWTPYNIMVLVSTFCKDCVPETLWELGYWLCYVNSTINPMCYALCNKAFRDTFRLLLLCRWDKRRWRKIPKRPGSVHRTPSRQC
Description: Positive allosteric modulation of human M1 receptor.

The target of data set [6] is Muscarinic acetylcholine receptor M3 (Homo sapiens, UniProt P20309). The data set can be described thus: Positive allosteric modulation of human M3 receptor.
For data set [7], the target named is T5, Muscarinic acetylcholine receptor M5 (Homo sapiens) (UniProt P08912).
T5 sequence (whole entry): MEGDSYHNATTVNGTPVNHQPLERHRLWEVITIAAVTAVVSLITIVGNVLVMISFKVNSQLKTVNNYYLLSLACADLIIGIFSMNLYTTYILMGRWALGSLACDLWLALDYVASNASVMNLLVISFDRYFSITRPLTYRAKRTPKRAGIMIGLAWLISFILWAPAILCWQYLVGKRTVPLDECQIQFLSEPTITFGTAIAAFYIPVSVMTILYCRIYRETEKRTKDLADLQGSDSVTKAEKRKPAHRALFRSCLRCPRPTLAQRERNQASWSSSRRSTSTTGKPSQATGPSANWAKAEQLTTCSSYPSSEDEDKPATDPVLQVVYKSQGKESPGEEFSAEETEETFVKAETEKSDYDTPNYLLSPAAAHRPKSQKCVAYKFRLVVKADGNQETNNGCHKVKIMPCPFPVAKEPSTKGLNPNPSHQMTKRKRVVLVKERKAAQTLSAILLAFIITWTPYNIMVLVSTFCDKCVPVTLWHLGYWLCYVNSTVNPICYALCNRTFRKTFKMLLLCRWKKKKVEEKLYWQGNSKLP
The data set can be described thus: Positive allosteric modulation of human M5 receptor.

The nature of data set [8]: Hepatic clearance in rat. Format: ADME. The following applies: in vivo.
Data set [9] in a line: Hepatic clearance in human. Format: ADME.
A short description of data set [10]: Fraction unbound in rat plasma. Format: ADME, cell-free.
A short description of data set [11]: Fraction unbound in human plasma. Format: ADME, cell-free.
Data set [12] in a line: Fraction unbound in rat brain. Format: ADME, tissue-based.
Data set [13] can be described thus: Brain to plasma permeability coefficient, Kp in Sprague-Dawley rat at 0.1 to 0.2 mg/kg, iv measured after 0.25 hrs. Format: ADME, organism-based. The following applies: dose 0.1-0.2 mg/kg.
Data set [14] is described as follows: Unbound brain-to-plasma concentration ratio in Sprague-Dawley rat at 0.1 to 0.2 mg/kg, iv measured after 0.25 hrs. Format: ADME, organism-based. Particulars: dose 0.1-0.2 mg/kg, read-out: K(p,uu,brain).
Data set [15] deals with P-gp. Description: Substrate activity at human P-gp expressed in MDCK-MDR1 cells assessed as efflux ratio. Format: ADME, cell-based.

The structures appear in SMILES notation. Calls of active or inactive are those of the source. The calls are words filed in the database; no cut-off is given here.

Sequence of Muscarinic acetylcholine receptor M3 (P20309 whole entry, looked up): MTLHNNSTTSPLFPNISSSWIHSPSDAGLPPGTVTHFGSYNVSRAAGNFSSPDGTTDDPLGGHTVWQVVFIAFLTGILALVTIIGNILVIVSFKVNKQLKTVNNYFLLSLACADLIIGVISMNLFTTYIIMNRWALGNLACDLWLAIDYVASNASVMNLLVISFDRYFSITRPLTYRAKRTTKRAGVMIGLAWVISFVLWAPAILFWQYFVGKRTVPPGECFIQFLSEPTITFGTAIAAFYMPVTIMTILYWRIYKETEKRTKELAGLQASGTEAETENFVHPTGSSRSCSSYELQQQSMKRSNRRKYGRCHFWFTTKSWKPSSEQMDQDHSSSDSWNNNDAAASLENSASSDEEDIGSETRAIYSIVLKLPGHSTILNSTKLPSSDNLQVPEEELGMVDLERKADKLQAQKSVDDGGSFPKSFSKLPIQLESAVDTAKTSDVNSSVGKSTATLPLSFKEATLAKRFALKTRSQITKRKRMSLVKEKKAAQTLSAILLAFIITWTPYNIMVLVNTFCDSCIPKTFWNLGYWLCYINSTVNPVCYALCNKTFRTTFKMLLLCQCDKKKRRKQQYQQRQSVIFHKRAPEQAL

Regarding `Cc1c(Cl)nnc2sc(C(=O)NC3CN(c4ccc(C5CC5)nn4)C3)c(N)c12`, the EC50 is 120 nM in data set [1] and greater than 5000 nM in [3]. In addition, the %max in data set [2] is 94%. Also, the Emax in [4] amounted to 43%. Besides, the outcome in data set [5], in data set [6] and in data set [7] was inactive.

As for `Cc1c(Cl)nnc2sc(C(=O)NC3CN(c4nnc(CC(C)C)o4)C3)c(N)c12`, the values for the half-maximal effective concentration (EC50) in data set [1] and in data set [3] were 230 nM and greater than 10000 nM, respectively. For the same compound, in [2], the %max turned out to be 47%. The Emax in data set [4] is 62%. Moreover, the result in data set [5], in [6] and in data set [7] was inactive.

Regarding `Cc1c(Cl)nnc2sc(C(=O)NC3CN(c4cc(C(F)(F)F)ncc4Cl)C3)c(N)c12`, the EC50 was 20 nM in [1] and greater than 10000 nM in data set [3]. The %max in data set [2] worked out at 90%. For the same compound, the Emax in data set [4] was 51%. Moreover, the result in [5], in data set [6] and in data set [7] was inactive. The CLH in data set [8] turned out to be 31.7 mL/min/kg; in [9], 14.7 mL/min/kg. The values for the fraction unbound in data set [10], in data set [11] and in data set [12] were 0.019, 0.019 and 0.01, respectively. Moreover, the Kp at 0.25 h in [13] stood at 0.31. The Kp uu at 0.25 h in data set [14] turned out to be 0.16.

`Cc1cc(C2CC2)ncc1N1CC(NC(=O)c2sc3nnc(Cl)c(C)c3c2N)C1`: the EC50 in data set [1] was 150 nM; in data set [3] it was 870 nM. In addition, in data set [2], the %max came to 90%. Further, the Emax in data set [4] was determined as 33%. Moreover, the outcome in data set [5], in data set [6] and in data set [7] was inactive.

Regarding `Cc1c(Cl)nnc2sc(C(=O)NC3CN(c4cccnc4)C3)c(N)c12`, the EC50 in [1] came out at 20 nM; in [3], 1100 nM. For the same compound, the %max in [2] was found to be 86%. The Emax in data set [4] is 64%. In addition, the result in data set [5], in data set [6] and in data set [7] was inactive.

Turning to `Cc1c(Cl)nnc2sc(C(=O)NC3CN(c4ncc(C(F)(F)F)cn4)C3)c(N)c12`, the EC50 is 60 nM in data set [1] and greater than 30000 nM in [3]. Further, in [2], the %max stood at 78%. Moreover, the result in [5], in [6] and in [7] was inactive. The compound also registered a CLH in data set [8] of 51.9 mL/min/kg. The fraction unbound worked out at 0.022 in [10], 0.022 in data set [11] and 0.037 in data set [12]. Also, the Kp at 0.25 h in data set [13] is 0.1. Moreover, in data set [14], the Kp uu at 0.25 h came out at 0.17.

Regarding `Cc1c(C(F)F)nnc2sc(C(=O)NC3CN(c4ncc(C(F)(F)F)cn4)C3)c(N)c12`, the concentration for a half-maximal effect (EC50) is 150 nM in data set [1] and greater than 30000 nM in data set [3]. Also, the %max in data set [2] was found to be 49%. Also, the result in [5], in data set [6] and in [7] was inactive. In addition, the values for the CLH in [8] and in [9] were 18.8 mL/min/kg and 10.1 mL/min/kg, respectively. Moreover, the fraction unbound was 0.017 in data set [10], 0.02 in data set [11] and 0.062 in data set [12]. Also, the Kp at 0.25 h in data set [13] was 0.29. Besides, in data set [14], the Kp uu at 0.25 h was 0.88. Besides, the efflux ratio in data set [15] is 3.

For `Cc1c(Cl)nnc2sc(C(=O)NC3CN(c4cnc(Cl)cn4)C3)c(N)c12`, the EC50 in data set [1] amounted to 140 nM; in data set [3], 400 nM. For the same compound, the %max in data set [2] worked out at 99%. In addition, in [4], the Emax came out at 40%. Also, the outcome in [5], in [6] and in data set [7] was inactive.

Regarding `Cc1nnc2sc(C(=O)NC3CN(c4ncc(C(F)(F)F)cn4)C3)c(N)c2c1C`, the EC50 in [1] stood at 90 nM; in data set [3] it was 1160 nM. For the same compound, the %max in [2] is 76%. Moreover, in data set [4], the Emax is 30%. The result in data set [5], in data set [6] and in data set [7] was inactive. The CLH in data set [8] was 10.6 mL/min/kg; in data set [9] it was 4.39 mL/min/kg. Further, the fraction unbound in data set [10] amounted to 0.028; in [11] it was 0.048; in [12], 0.41. The compound also returned a Kp at 0.25 h in data set [13] of 0.12. In addition, the Kp uu at 0.25 h in [14] amounted to 0.18. In addition, the efflux ratio in data set [15] was 4.

As to `Cc1c(CF)nnc2sc(C(=O)NC3CN(c4ncc(C(F)(F)F)cn4)C3)c(N)c12`, the figures for the EC50 in data set [1] and in data set [3] were 170 nM and greater than 30000 nM, respectively. Also, in [2], the %max was determined as 73%. Further, the result in data set [5], in data set [6] and in data set [7] was inactive. The CLH in data set [8] was 23.7 mL/min/kg; in data set [9] it was 10.8 mL/min/kg. Also, the fraction unbound turned out to be 0.034 in [10], 0.042 in [11] and 0.085 in data set [12]. In data set [13], the Kp at 0.25 h is 0.06. Also, the Kp uu at 0.25 h in [14] came out at 0.15.

For `COc1cc(N2CC(NC(=O)c3sc4nnc(Cl)c(C)c4c3N)C2)c(Cl)cn1`, the EC50 in data set [1] is 10 nM; in [3] it was greater than 30000 nM. Besides, the %max in [2] came out at 52%. The result in data set [5], in data set [6] and in data set [7] was inactive. Further, the CLH in data set [8] was 15.3 mL/min/kg; in [9], 11.7 mL/min/kg. Further, the fraction unbound in data set [10] was 0.005; in data set [11], less than 0.001; in [12] it was 0.01. Besides, the Kp at 0.25 h in data set [13] was determined as 0.21. In data set [14], the Kp uu at 0.25 h is 0.42.

For orientation: EC50 means the concentration that produces a half-maximal response. For orientation: fraction unbound means the share of the substance not bound to proteins or other matrix. A low value points to extensive binding. Usually Kp stands for tissue or fluid exposure divided by exposure in the circulation. The efflux ratio is the permeability from basolateral to apical divided by that in the opposite direction, in the common usage.
